Results published in patent publication US12612380B2, “Non-lysosomal glucosylceramidase inhibitors and uses thereof” (ALECTOS THERAPEUTICS INC., priority 2019, dated 2026).

Molecular target: T1, GBA2 (Homo sapiens, UniProt Q9HCG7)
T1 sequence (Q9HCG7 1-927): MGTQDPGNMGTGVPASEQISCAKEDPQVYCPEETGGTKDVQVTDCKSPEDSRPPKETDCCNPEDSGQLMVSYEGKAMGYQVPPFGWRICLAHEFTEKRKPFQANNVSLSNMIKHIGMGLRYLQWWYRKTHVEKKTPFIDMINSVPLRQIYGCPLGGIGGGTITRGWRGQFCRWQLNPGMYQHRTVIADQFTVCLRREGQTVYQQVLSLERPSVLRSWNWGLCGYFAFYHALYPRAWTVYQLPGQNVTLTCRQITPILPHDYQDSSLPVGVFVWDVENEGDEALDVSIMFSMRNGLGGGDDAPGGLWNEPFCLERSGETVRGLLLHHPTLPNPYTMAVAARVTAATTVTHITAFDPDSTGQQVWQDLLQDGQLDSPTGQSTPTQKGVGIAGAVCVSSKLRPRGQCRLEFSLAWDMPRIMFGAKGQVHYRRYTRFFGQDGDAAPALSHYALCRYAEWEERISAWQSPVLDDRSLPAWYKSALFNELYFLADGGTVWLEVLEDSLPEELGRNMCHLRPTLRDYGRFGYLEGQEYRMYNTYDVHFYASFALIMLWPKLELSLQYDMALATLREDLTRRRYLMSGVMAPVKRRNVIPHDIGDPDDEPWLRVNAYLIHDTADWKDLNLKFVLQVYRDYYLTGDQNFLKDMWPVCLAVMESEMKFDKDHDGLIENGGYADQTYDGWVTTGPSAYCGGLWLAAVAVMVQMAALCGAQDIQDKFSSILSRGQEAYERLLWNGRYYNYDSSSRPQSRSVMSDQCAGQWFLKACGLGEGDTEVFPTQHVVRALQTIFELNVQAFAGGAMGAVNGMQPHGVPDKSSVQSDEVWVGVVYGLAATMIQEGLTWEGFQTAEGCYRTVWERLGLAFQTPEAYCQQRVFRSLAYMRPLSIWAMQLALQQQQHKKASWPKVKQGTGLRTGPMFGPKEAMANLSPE
Test: Determination of IC50 values for inhibition of GBA2 in cell lysate
Assay type: biochemical
Set-up: host or cells: HEK293T (lentiviral transduction, puromycin selection); used as cellular homogenate
Settings: cellular homogenate of HEK293T cells overexpressing human GBA2, 250 μM 4-methylumbelliferone-β-D glucopyranoside, pH 5.5, 37° C., GCase inhibitor present; read-out: GBA2 IC50
Method in brief: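 Fluorogenic 4-MU-β-glucoside (250 μM) turnover over 20 min at 37 °C, pH 5.5, measured after NaOH/glycine stop (ex 365, em 450 nm). Enzyme source: lysate (0.083 mg/mL) of lentivirally transduced GBA2-HEK293T, GCase blocked by 20 μM azaspiro-octanediol; compound preincubated 5 min; IC50 = 50% inhibition concentration.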

Row | Structure (SMILES) | IC50
1 | C[C@@H]1[C@@H](O)[C@H](O)[C@@H](O)CN1CC1CCN(C(=O)[C@H]2CC[C@H](C(C)(C)C)CC2)CC1 [Example 103, ((1r,4R)-4-(tert-butyl)cyclohexyl)(4-(((2R,3R,4R,5S)-3,4,5-trihydroxy-2-methylpiperidin-1-yl)methyl)piperidin-1-yl)methanone] | < 100 nM
2 | COC1CCC(C(=O)N2CCC(CN3C[C@H](O)[C@@H](O)[C@H](O)[C@H]3C)CC2)CC1 (stereo partly drawn) [Example 104, (4-methoxycyclohexyl)(4-(((2R,3R,4R,5S)-3,4,5-trihydroxy-2-methylpiperidin-1-yl)methyl)piperidin-1-yl)methanone] | 1000 to 25000 nM
3 | C[C@@H]1[C@@H](O)[C@H](O)[C@@H](O)CN1CC1CCN(C(=O)C2CCC(C(F)(F)F)CC2)CC1 (stereo partly drawn) [Example 105, (4-(trifluoromethyl)cyclohexyl)(4-(((2R,3R,4R,5S)-3,4,5-trihydroxy-2-methylpiperidin-1-yl)methyl)piperidin-1-yl)methanone] | < 100 nM
4 | C[C@@H]1[C@@H](O)[C@H](O)[C@@H](O)CN1CC1CCN(C(=O)c2ccccc2)CC1 [Example 106, phenyl(4-(((2R,3R,4R,5S)-3,4,5-trihydroxy-2-methylpiperidin-1-yl)methyl)piperidin-1-yl)methanone] | 100 to 1000 nM
5 | C[C@@H]1[C@@H](O)[C@H](O)[C@@H](O)CN1CC1CCN(C(=O)c2cccc(C(F)(F)F)c2)CC1 [Example 107, (3-(trifluoromethyl)phenyl)(4-(((2R,3R,4R,5S)-3,4,5-trihydroxy-2-methylpiperidin-1-yl)methyl)piperidin-1-yl)methanone] | < 100 nM
6 | C[C@@H]1[C@@H](O)[C@H](O)[C@@H](O)CN1CC1CCN(C(=O)Cc2ccccc2)CC1 [Example 108, 2-phenyl-1-(4-(((2R,3R,4R,5S)-3,4,5-trihydroxy-2-methylpiperidin-1-yl)methyl)piperidin-1-yl)ethanone] | 100 to 1000 nM
7 | C[C@@H]1[C@@H](O)[C@H](O)[C@@H](O)CN1CC1CCN(C(=O)c2ccsc2)CC1 [Example 109, thiophen-3-yl(4-(((2R,3R,4R,5S)-3,4,5-trihydroxy-2-methylpiperidin-1-yl)methyl)piperidin-1-yl)methanone] | 100 to 1000 nM
8 | C[C@@H]1[C@@H](O)[C@H](O)[C@@H](O)CN1CC1CCN(C(=O)NC2CCCCC2)CC1 [Example 110, N-cyclohexyl-4-(((2R,3R,4R,5S)-3,4,5-trihydroxy-2-methylpiperidin-1-yl)methyl)piperidine-1-carboxamide] | 100 to 1000 nM
9 | C[C@@H]1[C@@H](O)[C@H](O)[C@@H](O)CN1CC1CCN(C(=S)NC2CCCCC2)CC1 [Example 111, N-cyclohexyl-4-(((2R,3R,4R,5S)-3,4,5-trihydroxy-2-methylpiperidin-1-yl)methyl)piperidine-1-carbothioamide] | 100 to 1000 nM
10 | C[C@@H]1[C@@H](O)[C@H](O)[C@@H](O)CN1CC1CN([C@H]2CCCC[C@H]2C(F)(F)F)C1 [Example 112, (2R,3R,4R,5S)-2-methyl-1-((1-((1S,2R)-2-(trifluoromethyl)cyclohexyl)azetidin-3-yl)methyl)piperidine-3,4,5-triol] | 1000 to 25000 nM
11 | C[C@@H]1[C@@H](O)[C@H](O)[C@@H](O)CN1C[C@H]1CCN(c2ccccc2)C1 [Example 113, (2R,3R,4R,5S)-2-methyl-1-(((R)-1-phenylpyrrolidin-3-yl)methyl)piperidine-3,4,5-triol] | < 100 nM
12 | C[C@@H]1[C@@H](O)[C@H](O)[C@@H](O)CN1C[C@H]1CCN(c2cc(C(F)(F)F)ccn2)C1 [Example 121, (2R,3R,4R,5S)-2-methyl-1-(((R)-1-(4-(trifluoromethyl)pyridin-2-yl)pyrrolidin-3-yl)methyl)piperidine-3,4,5-triol] | < 100 nM
13 | C[C@@H]1[C@@H](O)[C@H](O)[C@@H](O)CN1C[C@H]1CCN(c2cccnc2)C1 [Example 122, (2R,3R,4R,5S)-2-methyl-1-(((R)-1-(pyridin-3-yl)pyrrolidin-3-yl)methyl)piperidine-3,4,5-triol] | 1000 to 25000 nM
14 | Cc1ccncc1N1CC[C@H](CN2C[C@H](O)[C@@H](O)[C@H](O)[C@H]2C)C1 [Example 123, (2R,3R,4R,5S)-2-methyl-1-(((R)-1-(4-methylpyridin-3-yl)pyrrolidin-3-yl)methyl)piperidine-3,4,5-triol] | 100 to 1000 nM
15 | C[C@@H]1[C@@H](O)[C@H](O)[C@@H](O)CN1C[C@H]1CCN(c2cnccc2C(F)(F)F)C1 [Example 124, (2R,3R,4R,5S)-2-methyl-1-(((R)-1-(4-(trifluoromethyl)pyridin-3-yl)pyrrolidin-3-yl)methyl)piperidine-3,4,5-triol] | < 100 nM
16 | C[C@@H]1[C@@H](O)[C@H](O)[C@@H](O)CN1C[C@H]1CCN(c2cncc(C(F)(F)F)c2)C1 [Example 125, (2R,3R,4R,5S)-2-methyl-1-(((R)-1-(5-(trifluoromethyl)pyridin-3-yl)pyrrolidin-3-yl)methyl)piperidine-3,4,5-triol] | < 100 nM
17 | C[C@@H]1[C@@H](O)[C@H](O)[C@@H](O)CN1C[C@H]1CCN(c2cccnc2C(F)(F)F)C1 [Example 126, (2R,3R,4R,5S)-2-methyl-1-(((R)-1-(2-(trifluoromethyl)pyridin-3-yl)pyrrolidin-3-yl)methyl)piperidine-3,4,5-triol] | < 100 nM
18 | C[C@@H]1[C@@H](O)[C@H](O)[C@@H](O)CN1C[C@H]1CCN(c2cncnc2C(F)(F)F)C1 [Example 127, (2R,3R,4R,5S)-2-methyl-1-(((R)-1-(4-(trifluoromethyl)pyrimidin-5-yl)pyrrolidin-3-yl)methyl)piperidine-3,4,5-triol] | < 100 nM
19 | C[C@@H]1[C@@H](O)[C@H](O)[C@@H](O)CN1C[C@H]1CCN(c2ccsc2)C1 [Example 128, (2R,3R,4R,5S)-2-methyl-1-(((R)-1-(thiophen-3-yl)pyrrolidin-3-yl)methyl)piperidine-3,4,5-triol] | < 100 nM
20 | C[C@@H]1[C@@H](O)[C@H](O)[C@@H](O)CN1C[C@H]1CCN(C(=O)c2ccc(C(F)(F)F)cc2)C1 [Example 130, (4-(trifluoromethyl)phenyl)((R)-3-(((2R,3R,4R,5S)-3,4,5-trihydroxy-2-methylpiperidin-1-yl)methyl)pyrrolidin-1-yl)methanone] | < 100 nM
21 | C[C@@H]1[C@@H](O)[C@H](O)[C@@H](O)CN1C[C@@H]1CCN(c2ncccc2C(F)(F)F)C1 [Example 132, (2R,3R,4R,5S)-2-methyl-1-(((S)-1-(3-(trifluoromethyl)pyridin-2-yl)pyrrolidin-3-yl)methyl)piperidine-3,4,5-triol] | < 100 nM
22 | C[C@@H]1[C@@H](O)[C@H](O)[C@@H](O)CN1C[C@@H]1CCN(c2cnccc2C(F)(F)F)C1 [Example 133, (2R,3R,4R,5S)-2-methyl-1-(((S)-1-(4-(trifluoromethyl)pyridin-3-yl)pyrrolidin-3-yl)methyl)piperidine-3,4,5-triol] | < 100 nM
23 | C[C@@H]1[C@@H](O)[C@H](O)[C@@H](O)CN1C[C@@H]1CCN(c2cncnc2C(F)(F)F)C1 [Example 134, (2R,3R,4R,5S)-2-methyl-1-(((S)-1-(4-(trifluoromethyl)pyrimidin-5-yl)pyrrolidin-3-yl)methyl)piperidine-3,4,5-triol] | < 100 nM
24 | C[C@@H]1[C@@H](O)[C@H](O)[C@@H](O)CN1C[C@@H]1CCN(c2nc(C(F)(F)F)cs2)C1 [Example 135, (2R,3R,4R,5S)-2-methyl-1-(((S)-1-(4-(trifluoromethyl)thiazol-2-yl)pyrrolidin-3-yl)methyl)piperidine-3,4,5-triol] | < 100 nM
25 | C[C@@H]1[C@@H](O)[C@H](O)[C@@H](O)CN1C[C@@H]1CCCN(c2cccc(C(F)(F)F)n2)C1 [Example 143, (2R,3R,4R,5S)-2-methyl-1-(((S)-1-(6-(trifluoromethyl)pyridin-2-yl)piperidin-3-yl)methyl)piperidine-3,4,5-triol] | < 100 nM
26 | C[C@@H]1[C@@H](O)[C@H](O)[C@@H](O)CN1C[C@@H]1CCCN(c2nc(C(F)(F)F)cs2)C1 [Example 144, (2R,3R,4R,5S)-2-methyl-1-(((S)-1-(4-(trifluoromethyl)thiazol-2-yl)piperidin-3-yl)methyl)piperidine-3,4,5-triol] | 100 to 1000 nM
27 | CC(C)C1CCC(CN2C[C@H](O)[C@@H](O)[C@H](O)[C@H]2CF)CC1 (stereo partly drawn) [Example 145, (2S,3R,4R,5S)-2-(fluoromethyl)-1-((4-isopropylcyclohexyl)methyl)piperidine-3,4,5-triol] | < 100 nM
